According to the supplement of paper PMC12463676, “Small-molecule dissolution of stress granules by redox modulation benefits ALS models” (Nature Chemical Biology, 2025):

Experiments:
lipoamide = compound: NC(=O)CCCCC1CCSS1 [lipoamide]; test: thermal stability z-score vs DMSO; higher = more thermally stabilized by treatment; conditions: HeLa, lipoamide concentration 100 µM
Protocol: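 Cellular thermal proteome profiling in HeLa cells. Cells were treated with 100 µM lipoamide for 1 h, with or without 1 mM arsenate for a further 1 h, then heated to ten temperatures (37-66.3 °C), and soluble protein was quantified by TMT mass spectrometry relative to 0.1% DMSO controls. The thermal stability score (sum of log2 fold changes minus the abundance score) was transformed to a z-score; mean of n = 3 experiments.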

potassium arsenate = compound: O=[As]([O-])(O)O.[K+] [potassium arsenate]; test: as above; conditions: HeLa; arsenate concentration 1 mM
Protocol: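 Cellular thermal proteome profiling in HeLa cells treated with 1 mM arsenate for 1 h (DMSO pretreatment), heated to ten temperatures (37-66.3 °C). Soluble protein was quantified by TMT mass spectrometry relative to DMSO controls; the thermal stability score was transformed to a z-score; mean of n = 3 experiments.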

[1] = arsenate co-treatment: 1 mM arsenate 1 h
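Further: each temperature applied for 3 min, abundance score taken as mean log2 fold change at the two lowest temperatures, z-score obtained by mean subtraction and division by SD.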

UniProt P49773, sequence (P49773 whole entry): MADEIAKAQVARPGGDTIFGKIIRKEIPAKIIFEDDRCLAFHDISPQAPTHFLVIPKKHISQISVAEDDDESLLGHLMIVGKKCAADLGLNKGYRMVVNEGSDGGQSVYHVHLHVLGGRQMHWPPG
UniProt Q5T8I9, sequence (Q5T8I9 whole entry): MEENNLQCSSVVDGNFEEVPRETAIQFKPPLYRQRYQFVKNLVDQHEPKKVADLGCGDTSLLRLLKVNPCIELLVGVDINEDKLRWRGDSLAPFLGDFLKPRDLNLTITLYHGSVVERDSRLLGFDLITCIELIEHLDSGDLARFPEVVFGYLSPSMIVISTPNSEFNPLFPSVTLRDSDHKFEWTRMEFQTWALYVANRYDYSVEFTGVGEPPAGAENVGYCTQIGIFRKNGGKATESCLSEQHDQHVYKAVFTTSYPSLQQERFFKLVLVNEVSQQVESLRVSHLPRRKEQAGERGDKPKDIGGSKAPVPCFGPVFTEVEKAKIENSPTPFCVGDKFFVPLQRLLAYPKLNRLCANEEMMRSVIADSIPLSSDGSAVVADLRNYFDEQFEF
UniProt Q9BX68, sequence (Q9BX68 whole entry): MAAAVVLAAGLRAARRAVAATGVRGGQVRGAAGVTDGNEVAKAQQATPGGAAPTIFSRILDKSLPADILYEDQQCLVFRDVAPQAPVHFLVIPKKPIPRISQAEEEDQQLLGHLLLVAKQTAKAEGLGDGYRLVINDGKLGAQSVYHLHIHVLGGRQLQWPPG
UniProt Q6NVY1, sequence (Q6NVY1 whole entry): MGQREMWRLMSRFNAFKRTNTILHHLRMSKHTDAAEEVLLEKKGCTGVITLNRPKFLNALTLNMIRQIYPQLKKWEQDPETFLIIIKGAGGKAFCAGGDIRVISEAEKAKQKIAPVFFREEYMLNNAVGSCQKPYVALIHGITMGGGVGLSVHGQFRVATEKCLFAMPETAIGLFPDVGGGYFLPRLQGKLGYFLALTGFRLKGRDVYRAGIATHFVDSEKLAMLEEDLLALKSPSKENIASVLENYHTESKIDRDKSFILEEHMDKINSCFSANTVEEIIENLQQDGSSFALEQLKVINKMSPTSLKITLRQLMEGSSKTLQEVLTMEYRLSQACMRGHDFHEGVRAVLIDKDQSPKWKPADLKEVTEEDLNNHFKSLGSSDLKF
UniProt Q9ULT8, sequence (Q9ULT8 whole entry): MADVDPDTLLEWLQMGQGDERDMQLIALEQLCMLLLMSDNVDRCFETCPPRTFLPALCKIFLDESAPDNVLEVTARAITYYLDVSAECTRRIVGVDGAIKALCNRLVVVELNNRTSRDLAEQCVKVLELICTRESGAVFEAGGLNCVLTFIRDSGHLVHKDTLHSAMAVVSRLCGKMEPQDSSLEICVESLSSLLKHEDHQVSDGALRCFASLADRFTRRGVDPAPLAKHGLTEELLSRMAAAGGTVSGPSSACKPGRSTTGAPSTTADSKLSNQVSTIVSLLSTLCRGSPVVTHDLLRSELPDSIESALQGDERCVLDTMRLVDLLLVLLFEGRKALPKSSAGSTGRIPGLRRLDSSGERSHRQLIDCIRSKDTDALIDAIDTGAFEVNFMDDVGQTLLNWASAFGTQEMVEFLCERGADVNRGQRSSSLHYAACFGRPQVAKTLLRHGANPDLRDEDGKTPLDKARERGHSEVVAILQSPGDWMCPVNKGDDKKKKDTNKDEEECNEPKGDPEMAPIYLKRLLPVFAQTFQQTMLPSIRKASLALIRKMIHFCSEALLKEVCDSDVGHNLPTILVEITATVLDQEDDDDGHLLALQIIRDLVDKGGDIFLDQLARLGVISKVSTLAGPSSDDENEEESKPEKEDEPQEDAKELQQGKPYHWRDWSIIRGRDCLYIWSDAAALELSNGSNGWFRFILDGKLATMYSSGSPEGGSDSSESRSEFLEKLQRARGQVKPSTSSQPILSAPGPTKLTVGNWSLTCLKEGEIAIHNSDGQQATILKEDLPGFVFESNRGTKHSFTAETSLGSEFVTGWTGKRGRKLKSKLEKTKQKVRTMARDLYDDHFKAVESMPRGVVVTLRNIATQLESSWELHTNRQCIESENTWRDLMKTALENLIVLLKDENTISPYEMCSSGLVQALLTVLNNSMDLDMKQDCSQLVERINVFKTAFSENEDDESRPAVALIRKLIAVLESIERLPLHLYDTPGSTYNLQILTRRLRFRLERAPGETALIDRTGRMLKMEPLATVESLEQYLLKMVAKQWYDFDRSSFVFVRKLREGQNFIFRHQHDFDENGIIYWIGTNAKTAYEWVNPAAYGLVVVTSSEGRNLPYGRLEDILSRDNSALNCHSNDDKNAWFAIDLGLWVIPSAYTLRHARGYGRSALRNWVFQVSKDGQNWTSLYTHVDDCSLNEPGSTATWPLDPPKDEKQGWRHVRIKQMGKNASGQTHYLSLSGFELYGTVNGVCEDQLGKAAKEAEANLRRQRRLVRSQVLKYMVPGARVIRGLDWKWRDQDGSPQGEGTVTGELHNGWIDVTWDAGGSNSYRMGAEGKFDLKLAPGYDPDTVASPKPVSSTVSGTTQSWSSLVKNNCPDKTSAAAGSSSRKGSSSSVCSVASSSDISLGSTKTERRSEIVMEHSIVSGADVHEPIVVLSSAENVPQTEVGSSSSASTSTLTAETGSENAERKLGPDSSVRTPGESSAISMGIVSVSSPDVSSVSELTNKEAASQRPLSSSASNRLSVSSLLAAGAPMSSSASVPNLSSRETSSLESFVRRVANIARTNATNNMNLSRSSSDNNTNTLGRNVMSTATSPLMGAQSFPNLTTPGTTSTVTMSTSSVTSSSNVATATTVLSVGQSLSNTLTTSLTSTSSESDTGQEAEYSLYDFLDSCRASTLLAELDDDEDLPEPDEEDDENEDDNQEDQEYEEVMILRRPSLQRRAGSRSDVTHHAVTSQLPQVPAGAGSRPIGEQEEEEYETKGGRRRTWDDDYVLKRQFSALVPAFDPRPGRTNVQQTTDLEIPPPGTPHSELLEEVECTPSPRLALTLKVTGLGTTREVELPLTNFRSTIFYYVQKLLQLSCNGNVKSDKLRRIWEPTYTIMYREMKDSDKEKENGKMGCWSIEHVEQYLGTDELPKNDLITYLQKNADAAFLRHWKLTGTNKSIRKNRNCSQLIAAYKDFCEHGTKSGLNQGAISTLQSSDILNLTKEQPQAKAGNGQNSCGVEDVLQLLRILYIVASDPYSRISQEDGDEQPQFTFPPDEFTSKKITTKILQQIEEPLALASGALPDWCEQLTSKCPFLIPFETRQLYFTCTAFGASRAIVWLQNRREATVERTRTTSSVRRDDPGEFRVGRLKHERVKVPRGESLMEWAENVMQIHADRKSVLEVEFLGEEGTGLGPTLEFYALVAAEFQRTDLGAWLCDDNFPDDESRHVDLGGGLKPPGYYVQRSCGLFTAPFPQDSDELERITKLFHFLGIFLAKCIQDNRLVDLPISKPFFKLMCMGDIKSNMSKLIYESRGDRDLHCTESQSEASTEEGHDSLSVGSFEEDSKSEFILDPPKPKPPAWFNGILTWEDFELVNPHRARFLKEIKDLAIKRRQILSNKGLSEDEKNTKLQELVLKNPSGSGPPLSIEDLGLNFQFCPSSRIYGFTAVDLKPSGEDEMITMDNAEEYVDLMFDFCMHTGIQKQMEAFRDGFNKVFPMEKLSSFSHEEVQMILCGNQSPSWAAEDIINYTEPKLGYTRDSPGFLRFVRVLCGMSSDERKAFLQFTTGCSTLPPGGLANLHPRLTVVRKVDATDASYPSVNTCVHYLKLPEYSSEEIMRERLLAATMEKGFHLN
UniProt Q5T447, sequence (Q5T447 whole entry): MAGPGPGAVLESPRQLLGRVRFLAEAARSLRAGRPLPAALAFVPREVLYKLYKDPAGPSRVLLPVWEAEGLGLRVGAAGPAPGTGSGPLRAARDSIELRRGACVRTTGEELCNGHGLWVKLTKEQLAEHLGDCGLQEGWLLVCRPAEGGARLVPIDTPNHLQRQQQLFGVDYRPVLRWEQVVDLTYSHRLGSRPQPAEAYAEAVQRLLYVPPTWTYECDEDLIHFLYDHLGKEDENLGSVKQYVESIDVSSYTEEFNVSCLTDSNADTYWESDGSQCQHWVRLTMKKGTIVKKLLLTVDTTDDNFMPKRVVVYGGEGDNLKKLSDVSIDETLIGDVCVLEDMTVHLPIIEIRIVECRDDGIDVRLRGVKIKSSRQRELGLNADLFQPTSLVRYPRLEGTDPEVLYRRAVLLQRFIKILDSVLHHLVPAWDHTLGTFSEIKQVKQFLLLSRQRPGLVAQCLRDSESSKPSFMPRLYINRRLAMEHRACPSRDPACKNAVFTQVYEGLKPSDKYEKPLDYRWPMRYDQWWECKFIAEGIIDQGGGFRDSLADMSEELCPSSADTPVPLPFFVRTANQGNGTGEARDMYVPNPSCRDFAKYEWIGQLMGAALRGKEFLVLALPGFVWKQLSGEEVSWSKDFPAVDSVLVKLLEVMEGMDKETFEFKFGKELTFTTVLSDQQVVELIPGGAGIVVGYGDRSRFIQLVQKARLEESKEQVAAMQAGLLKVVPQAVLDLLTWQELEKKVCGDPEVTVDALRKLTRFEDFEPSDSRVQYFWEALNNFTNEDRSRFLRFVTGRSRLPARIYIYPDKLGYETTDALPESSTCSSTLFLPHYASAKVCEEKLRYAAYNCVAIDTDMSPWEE
UniProt P16401, sequence (P16401 whole entry): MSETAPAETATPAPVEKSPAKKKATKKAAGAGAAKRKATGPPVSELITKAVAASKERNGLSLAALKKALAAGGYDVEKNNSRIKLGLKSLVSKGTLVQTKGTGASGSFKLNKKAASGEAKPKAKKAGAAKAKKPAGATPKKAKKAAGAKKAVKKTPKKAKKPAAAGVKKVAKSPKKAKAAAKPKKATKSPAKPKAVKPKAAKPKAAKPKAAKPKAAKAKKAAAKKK
UniProt Q9NQE9, sequence (Q9NQE9 whole entry): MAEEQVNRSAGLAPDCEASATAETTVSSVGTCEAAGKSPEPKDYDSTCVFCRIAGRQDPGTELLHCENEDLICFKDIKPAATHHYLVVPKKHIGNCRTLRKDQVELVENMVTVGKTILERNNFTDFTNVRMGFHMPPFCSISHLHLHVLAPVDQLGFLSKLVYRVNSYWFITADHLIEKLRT

| Target | thermal stability z-score (lipoamide; [1]) | thermal stability z-score (lipoamide; arsenate co-treatment: none) | thermal stability z-score (potassium arsenate) |
| --- | --- | --- | --- |
| HEBP2 (UniProt Q9Y5Z4) | 0.891 | 0.694 | 0.0122 |
| HECTD1 (UniProt Q9ULT8) | -0.353 | -0.164 | 0.641 |
| HECTD3 (UniProt Q5T447) | -0.331 | -0.0311 | 0.272 |
| HECTD4 (UniProt Q9Y4D8) | -0.345 | 0.341 | 0.284 |
| HEG1 (UniProt Q9ULI3) | -0.842 | 1.15 | 0.868 |
| HEL | -0.604 | -0.392 | -0.18 |
| HELB (UniProt Q8NG08) | -0.468 | -0.74 | -0.671 |
| HELLS (UniProt Q9NRZ9) | -0.0381 | -0.0408 | -0.282 |
| HELZ2 (UniProt Q9BYK8) | -0.0529 | -0.115 | -0.0872 |
| HELZ (UniProt P42694) | -0.153 | -0.0553 | -0.122 |
| HENMT1 (UniProt Q5T8I9) | -0.37 | -0.0316 | 0.197 |
| HERC1 (UniProt Q15751) | -0.83 | -0.54 | -0.0795 |
| HERC2 (UniProt O95714) | -0.947 | -1.04 | 0.0415 |
| HERC4 (UniProt Q5GLZ8) | 0.298 | -0.11 | 0.726 |
| HERC5 (UniProt Q9UII4) | 0.139 | 0.601 | 0.512 |
| HERPUD1 (UniProt Q15011) | 0.186 | -0.201 | -0.94 |
| HEXA (UniProt P06865) | -0.146 | -0.412 | -0.0764 |
| HEXB (UniProt P07686) | -0.421 | -0.254 | 0.149 |

| Target | thermal stability z-score (lipoamide; [1]) | thermal stability z-score (lipoamide; arsenate co-treatment: none) | thermal stability z-score (potassium arsenate) |
| --- | --- | --- | --- |
| HEXIM1 (UniProt O94992) | 0.736 | 0.591 | 0.384 |
| HEXIM2 (UniProt Q96MH2) | -0.264 | 0.637 | 0.53 |
| HFE (UniProt Q30201) | -0.0165 | 0.389 | 0.0645 |
| HGH1 (UniProt Q9BTY7) | 0.403 | 0.226 | 0.787 |
| HGS (UniProt O14964) | 0.268 | 0.638 | 0.102 |
| HIBADH (UniProt P31937) | -1.36 | -0.391 | -1.36 |
| HIBCH (UniProt Q6NVY1) | 0.0376 | -0.171 | -0.476 |
| HIF1AN (UniProt Q9NWT6) | -0.806 | -0.553 | 0.463 |
| HINT1 (UniProt P49773) | 1.13 | 0.532 | -0.189 |
| HINT2 (UniProt Q9BX68) | -0.459 | -0.337 | -1.98 |
| HINT3 (UniProt Q9NQE9) | 0.23 | 0.339 | -1.57 |
| HIP1 (UniProt O00291) | 0.0784 | 0.0537 | 0.215 |
| HIP1R (UniProt O75146) | 0.15 | 0.28 | -0.232 |
| HIRIP3 (UniProt Q9BW71) | -0.148 | 0.462 | 0.468 |
| HIST1H1B (UniProt P16401) | 1.01 | 0.679 | 1.19 |
| HIST1H1C (UniProt P16403) | 0.707 | 0.018 | 0.0976 |
| HIST1H1E (UniProt P10412) | 0.132 | 0.627 | 0.618 |
| HIST1H4A (UniProt P62805) | 0.954 | 0.814 | 2.61 |
